What was measured:
[1] = target: GDP-bound NRAS wild-type protein (Homo sapiens, UniProt P01111); assay: Binding to NRAS by surface plasmon resonance (SPR), Single Cycle Kinetics; conditions: SPR, GDP-bound NRAS wild-type protein vs GDP-bound KRAS wild-type protein
[2] = target: GDP-bound HRAS wild-type protein (Homo sapiens, UniProt P01112); assay: Binding to HRAS by surface plasmon resonance (SPR), Single Cycle Kinetics; conditions: SPR, GDP-bound HRAS wild-type protein vs GDP-bound KRAS wild-type protein
Chain of GDP-bound HRAS wild-type protein (P01112 whole entry): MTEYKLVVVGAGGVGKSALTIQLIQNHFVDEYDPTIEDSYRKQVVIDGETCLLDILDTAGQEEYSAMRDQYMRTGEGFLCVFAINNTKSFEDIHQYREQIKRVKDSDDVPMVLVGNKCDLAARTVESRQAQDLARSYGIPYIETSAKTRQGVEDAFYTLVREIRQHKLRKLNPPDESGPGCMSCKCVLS

[3] = target: GDP-bound KRAS wild-type protein (Homo sapiens, UniProt P01116); assay: Binding to KRAS by surface plasmon resonance (SPR), Single Cycle Kinetics; conditions: SPR, Single Cycle Kinetics, GDP-bound KRAS wild-type protein; read-out: KRAS KD
Chain of GDP-bound KRAS wild-type protein (P01116 whole entry): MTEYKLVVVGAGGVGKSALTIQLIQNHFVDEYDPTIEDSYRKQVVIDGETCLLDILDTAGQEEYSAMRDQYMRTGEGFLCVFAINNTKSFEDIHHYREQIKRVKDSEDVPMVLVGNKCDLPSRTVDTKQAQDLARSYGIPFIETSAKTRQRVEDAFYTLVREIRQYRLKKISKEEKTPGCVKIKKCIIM

Chain of GDP-bound NRAS wild-type protein (P01111 whole entry): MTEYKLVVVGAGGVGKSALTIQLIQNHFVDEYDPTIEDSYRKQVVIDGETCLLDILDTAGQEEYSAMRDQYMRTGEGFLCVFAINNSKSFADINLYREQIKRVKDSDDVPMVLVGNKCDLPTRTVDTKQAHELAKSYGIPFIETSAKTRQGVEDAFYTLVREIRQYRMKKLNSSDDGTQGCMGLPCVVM

Compound | Kd [3] [nM] | NRAS/KRAS (ratio of KD value for NRAS to KD value for KRAS) [1] | HRAS/KRAS (ratio of KD value for HRAS to KD value for KRAS) [2]
CCCO[C@H]1CCN2C(=O)[C@H](CCc3cc(F)c(C(F)(F)F)c(F)c3)NC(=O)CN(C)C(=O)[C@H](Cc3ccc(C(F)(F)F)cc3)N3CCCCC[C@@H](C3=O)N(C)C(=O)CN(C)C(=O)[C@H]([C@@H](C)CC)NC(=O)[C@H](CC(C)C)N(C)C(=O)C[C@@H](C(=O)N3CCOCC3)N(C)C(=O)[C@H](C3CCCC3)N(C)C(=O)C3(CCC3)NC(=O)[C@H]12 [PP1069] | 2.5 | A (a compound having 10 or more and less than 20 is denoted as A) | B (a compound having 3 or more and less than 10 is denoted as B)
CCCCO[C@H]1CCN2C(=O)[C@H](CCc3cc(F)c(C(F)(F)F)c(F)c3)NC(=O)CN(C)C(=O)[C@H](Cc3ccc(C(F)(F)F)cc3)N3CCCC[C@@H](C3=O)N(C)C(=O)CN(C)C(=O)[C@H]([C@@H](C)CC)NC(=O)[C@H](CC(C)C)N(C)C(=O)C[C@@H](C(=O)N3CCOCC3)N(C)C(=O)[C@H](C3CCCC3)N(C)C(=O)C3(CCC3)NC(=O)[C@H]12 [PP1071] | 0.1 | B (a compound having 3 or more and less than 10 is denoted as B) | B (a compound having 3 or more and less than 10 is denoted as B)
CC[C@H](C)[C@@H]1NC(=O)[C@H](CC(C)C)N(C)C(=O)C[C@@H](C(=O)N2CCOCC2)N(C)C(=O)[C@H](C2CCCC2)N(C)C(=O)C2(CCC2)NC(=O)[C@@H]2[C@@H](OCC3CC3)CCN2C(=O)[C@H](CCc2cc(F)c(C(F)(F)F)c(F)c2)NC(=O)CN(C)C(=O)[C@H](Cc2ccc(C(F)(F)F)cc2)N2CCCC[C@@H](C2=O)N(C)C(=O)CN(C)C1=O [PP1072] | 0.063 | B (a compound having 3 or more and less than 10 is denoted as B) | B (a compound having 3 or more and less than 10 is denoted as B)
CC[C@H](C)[C@@H]1NC(=O)[C@H](CC(C)C)N(C)C(=O)C[C@@H](C(=O)N2CCOCC2)N(C)C(=O)[C@H](C2CCCC2)N(C)C(=O)C2(CCC2)NC(=O)[C@@H]2[C@@H](OC)CCN2C(=O)[C@H](CCc2cc(F)c(C(F)(F)F)c(F)c2)NC(=O)CN(C)C(=O)[C@H](Cc2ccc(C(F)(F)F)cc2)N2CCCC[C@@H](C2=O)N(C)C(=O)CN(C)C1=O [PP1075] | 0.066 | B (a compound having 3 or more and less than 10 is denoted as B) | B (a compound having 3 or more and less than 10 is denoted as B)
CCCO[C@@H]1CCN2C(=O)[C@H](CCc3cc(F)c(C(F)(F)F)c(F)c3)NC(=O)CN(C)C(=O)[C@H](Cc3ccc(C(F)(F)F)cc3)N3CCCC[C@@H](C3=O)N(C)C(=O)CN(C)C(=O)[C@H]([C@@H](C)CC)NC(=O)[C@H](CC(C)C)N(C)C(=O)C[C@@H](C(=O)N3CCOCC3)N(C)C(=O)[C@H](C3CCCC3)N(C)C(=O)C3(CCC3)NC(=O)[C@H]12 [PP1080] | 0.24 | B (a compound having 3 or more and less than 10 is denoted as B) | B (a compound having 3 or more and less than 10 is denoted as B)
CC[C@H](C)[C@@H]1NC(=O)[C@H](CC(C)C)N(C)C(=O)C[C@@H](C(=O)N2CCOCC2)N(C)C(=O)[C@H](C2CCCC2)N(C)C(=O)C2(CCC2)NC(=O)[C@@H]2[C@H](OC)CCN2C(=O)[C@H](CCc2cc(F)c(C(F)(F)F)c(F)c2)NC(=O)CN(C)C(=O)[C@H](Cc2ccc(C(F)(F)F)cc2)N2CCCCC[C@@H](C2=O)N(C)C(=O)CN(C)C1=O [PP1085] | 0.95 | A (a compound having 10 or more and less than 20 is denoted as A) | A (a compound having 10 or more and less than 20 is denoted as A)
CCO[C@@H]1C[C@H]2C(=O)NC3(CCC3)C(=O)N(C)[C@@H](C3CCCCC3)C(=O)N(C)[C@H](C(=O)N(C)C)CC(=O)N(C)[C@@H](CC)C(=O)N[C@@H]([C@@H](C)CC)C(=O)N(C)CC(=O)N(C)[C@H]3C/C=C\CCN(C3=O)[C@@H](Cc3ccc(C(F)(F)F)cc3)C(=O)N(C)CC(=O)N[C@@H](CCc3cc(F)c(C(F)(F)F)c(F)c3)C(=O)N2C1 [PP1086, (2S,8S,12R,14S,20S,23S,27S,30S,36S,38Z)-20-cyclohexyl-8-[2-[3,5-difluoro-4-(trifluoromethyl)phenyl]ethyl]-12-ethoxy-27-ethyl-N,N,4,19,22,26,32,35-octamethyl-30-[(1S)-1-methylpropyl]-3,6,9,15,18,21,25,28,31,34,42-undecaoxo-2-[[4-(trifluoromethyl)phenyl]methyl]spiro[1,4,7,10,16,19,22,26,29,32,35-undecazatricyclo[34.5.1.0^10,14]dotetracont-38-ene-17,1′-cyclobutane]-23-carboxamide] | 0.13 | AA (a compound having 20 or more is denoted as AA) | A (a compound having 10 or more and less than 20 is denoted as A)
CCO[C@@H]1C[C@H]2C(=O)NC3(CCC3)C(=O)N(C)[C@@H]([C@@H](C)CC)C(=O)N(C)[C@H](C(=O)N(C)C)CC(=O)N(C)[C@@H](CC)C(=O)N[C@@H]([C@@H](C)CC)C(=O)N(C)CC(=O)N(C)[C@H]3C/C=C\CCN(C3=O)[C@@H](Cc3ccc(C(F)(F)F)cc3)C(=O)N(C)CC(=O)N[C@@H](CCc3cc(F)c(C(F)(F)F)c(F)c3)C(=O)N2C1 [PP1087, (2S,8S,12R,14S,20S,23S,27S,30S,36S,38Z)-8-[2-[3,5-difluoro-4-(trifluoromethyl)phenyl]ethyl]-12-ethoxy-27-ethyl-N,N,4,19,22,26,32,35-octamethyl-20,30-bis[(1S)-1-methylpropyl]-3,6,9,15,18,21,25,28,31,34,42-undecaoxo-2-[[4-(trifluoromethyl)phenyl]methyl]spiro[1,4,7,10,16,19,22,26,29,32,35-undecazatricyclo[34.5.1.0^10,14]dotetracont-38-ene-17,1′-cyclobutane]-23-carboxamide] | 0.095 | A (a compound having 10 or more and less than 20 is denoted as A) | A (a compound having 10 or more and less than 20 is denoted as A)
CCO[C@@H]1C[C@H]2C(=O)NC3(CCC3)C(=O)N(C)[C@@H](C(C)C)C(=O)N(C)[C@H](C(=O)N(C)C)CC(=O)N(C)[C@@H](CC)C(=O)N[C@@H]([C@@H](C)CC)C(=O)N(C)CC(=O)N(C)[C@H]3C/C=C\CCN(C3=O)[C@@H](Cc3ccc(C(F)(F)F)cc3)C(=O)N(C)CC(=O)N[C@@H](CCc3cc(F)c(C(F)(F)F)c(F)c3)C(=O)N2C1 [PP1088] | 0.55 | A (a compound having 10 or more and less than 20 is denoted as A) | A (a compound having 10 or more and less than 20 is denoted as A)

Second part, led by results:

Kd [3] [nM] | Compound | NRAS/KRAS (ratio of KD value for NRAS to KD value for KRAS) [1] | HRAS/KRAS (ratio of KD value for HRAS to KD value for KRAS) [2]
0.36 | CC[C@H](C)[C@@H]1NC(=O)[C@H](CC(C)C)N(C)C(=O)C[C@@H](C(=O)N2CCOCC2)N(C)C(=O)[C@H](C2CCCC2)N(C)C(=O)C2(CCC2)NC(=O)[C@@H]2[C@@H](OCC3CCCC3)CCN2C(=O)[C@H](CCc2cc(F)c(C(F)(F)F)c(F)c2)NC(=O)CN(C)C(=O)[C@H](Cc2ccc(C(F)(F)F)cc2)N2CCCC[C@@H](C2=O)N(C)C(=O)CN(C)C1=O [PP1073] | B (a compound having 3 or more and less than 10 is denoted as B) | B (a compound having 3 or more and less than 10 is denoted as B)
0.068 | CCO[C@H]1CCN2C(=O)[C@H](CCc3cc(F)c(C(F)(F)F)c(F)c3)NC(=O)CN(C)C(=O)[C@H](Cc3ccc(C(F)(F)F)cc3)N3CCCC[C@@H](C3=O)N(C)C(=O)CN(C)C(=O)[C@H]([C@@H](C)CC)NC(=O)[C@H](CC(C)C)N(C)C(=O)C[C@@H](C(=O)N3CCOCC3)N(C)C(=O)[C@H](C3CCCC3)N(C)C(=O)C3(CCC3)NC(=O)[C@H]12 [PP1076] | B (a compound having 3 or more and less than 10 is denoted as B) | B (a compound having 3 or more and less than 10 is denoted as B)
0.085 | CCCO[C@H]1CCN2C(=O)[C@H](CCc3cc(F)c(C(F)(F)F)c(F)c3)NC(=O)CN(C)C(=O)[C@H](Cc3ccc(C(F)(F)F)cc3)N3CCCC[C@@H](C3=O)N(C)C(=O)CN(C)C(=O)[C@H]([C@@H](C)CC)NC(=O)[C@H](CC(C)C)N(C)C(=O)C[C@@H](C(=O)N3CCOCC3)N(C)C(=O)[C@H](C3CCCC3)N(C)C(=O)C3(CCC3)NC(=O)[C@H]12 [PP1077] | B (a compound having 3 or more and less than 10 is denoted as B) | B (a compound having 3 or more and less than 10 is denoted as B)
0.23 | CCO[C@@H]1CCN2C(=O)[C@H](CCc3cc(F)c(C(F)(F)F)c(F)c3)NC(=O)CN(C)C(=O)[C@H](Cc3ccc(C(F)(F)F)cc3)N3CCCC[C@@H](C3=O)N(C)C(=O)CN(C)C(=O)[C@H]([C@@H](C)CC)NC(=O)[C@H](CC(C)C)N(C)C(=O)C[C@@H](C(=O)N3CCOCC3)N(C)C(=O)[C@H](C3CCCC3)N(C)C(=O)C3(CCC3)NC(=O)[C@H]12 [PP1079] | B (a compound having 3 or more and less than 10 is denoted as B) | B (a compound having 3 or more and less than 10 is denoted as B)

Source: patent publication US20240158446A1, “CYCLIC COMPOUND HAVING SELECTIVE INHIBITORY ACTION ON KRAS OVER HRAS AND NRAS” (CHUGAI SEIYAKU KABUSHIKI KAISHA, priority 2021, published 2024)
